Measured values taken from US9095565B2, “Methods for treating blood disorders” (Phoenicia Biosciences, Inc., priority 2006, dated 2015).

Experiments:
[1] = tested on: erythroid (red blood cell) colonies; experiment: Experiment 5: growth of erythroid colonies from cord blood with standard growth factors (EPO and Il-3); type: cell-based, human
Method: In an additional study, comparative growth of erythroid (red blood cell) colonies cultured from cord blood samples was evaluated with the addition of growth factors alone or with the addition of test compounds.
Control and test cultures were established from the same samples with the same growth factors (EPO and II-3) with addition of test compounds. The compounds tested were M, P, R, T, W, Y, Z, AI, F and 3-(5-chlorothien-3-yl)acrylic acid. Two compounds previously shown as positive proliferative agents were included for comparison.

[2] = tested on: Erythroid colonies; experiment: Experiment 6: erythroid colony growth from sickle cell patients receiving hydroxyurea; type: cell-based, human
Method: Erythroid colonies from the peripheral blood of 4 patients with sickle cell disease who were receiving treatment with Hydroxyurea (HU), a chemotherapeutic agent which suppresses marrow growth and reduces red blood cell production, were cultured alone or with added test compounds M, P, 2-methyl-1-benzofuran-4-carboxylic acid, V, W, Y (racemic mixture) or AI. L-arginine was added as a neutral control, and had no effect on numbers of erythroid colonies.
2-methyl-1-benzofuran-4-carboxylic acid and compound V require additional samples for statistical evaluation, but had positive effects in 3/3 different patients' cultures. These findings indicate that the test compounds stimulate erythroid cell production particularly in conditions of anemia and bone marrow suppression.

[3] = tested on: γ-globin; details: cited from earlier work
[4] = tested on: γ globin promoter; experiment: β/γ-globin promoter driven reporter gene assay; type: cell-based; details: Table 2
[5] = tested on: γ-globin mRNA; experiment: γ-globin mRNA by RT-PCR in erythroid colonies cultured from cord blood; type: cell-based, human
Method: γ-globin mRNA was analyzed in control and treated erythroid colonies cultured from cord blood, by RT-PCR.

[6] = tested on: γ-globin gene reporter; experiment: Related study: relative luciferase reporter gene induction; type: cell-based
Method: (§1) In a related study, the relative luciferase reporter gene induction, γ-globin gene induction, and F cell production was tested for several of the candidate compounds. The relative in vitro γ-globin gene reporter stimulation for the tested compounds was as follows: compound P>M>W=R=Y. The relative in vitro γ-globin gene induction for the tested compounds was as follows: P>R=M>Y>W>. The relative in vitro F-cell production was as follows: W>Y>R>M>P. The relative potency for F-cell production was as follows: R>M>Y>P>W.

[7] = tested on: γ-globin gene; experiment: Related study: relative in vitro γ-globin gene induction; type: cell-based
Method: as §1

[8] = tested on: F-cell; experiment: Related study: in vitro F cell production; type: cell-based
Method: as §1

[9] = tested on: cells expressing fetal globin (F-cells); experiment: Experiment 1: proportion of F-cells in hematopoietic colonies by FACScan; type: cell-based, human; details: same low concentrations as for fetal globin mRNA induction
Method: (§2) Erythroid burst-forming units (BFU-E) (erythroid progenitors) and colony-forming units granulocyte-macrophage (CFU-GM) (myeloid colonies) were cultured in semi-solid or in two-phase suspension media, with or without hematopoietic growth factors at high levels (e.g., erythropoietin at 3 U/ml) or reduced levels (BFU-E cell proliferation was evaluated by enumeration in colonies developing in the presence of reduced amounts of erythropoietin (0.5 U/ml) rather than 3 U (or 3000 mU)/ml, which is standard for these experimental systems), from cord blood or the peripheral blood of several types of humans. Experiments were carried out on samples derived from 1) β-thalassemia patients who expressed variable levels of fetal globin at baseline (and in untreated control cultures) and represent a variety of potential individual responses, 2) from normal umbilical cord blood samples, which express 40-50% fetal globin at baseline (and in untreated control cultures), 3) from CD34+ cells isolated from normal adult peripheral blood, which expressed low levels of fetal globin in untreated control cultures and at baseline; and 4) from peripheral blood of patients with sickle cell disease who were receiving treatment with hydroxyurea. These biological samples provide a range of potential difficulty in stimulating fetal globin expression in human patients.
Hematopoietic colonies were enumerated with or without (+/−) the test compounds, and compared to colonies which developed in the presence of hematopoietic growth factors alone from the same subject (untreated control colonies), and proportions of cells expressing fetal globin (F-cells) were analyzed by FACScan analysis.

[10] = tested on: Erythroid colonies (BFU-E); experiment: Experiment 2: erythroid colonies (BFU-E) cultured from patients with beta thalassemia; type: cell-based, human; details: optimal panel of growth factors
Method: as §2
Erythroid colonies were cultured from patients with beta thalassemia, either without any test compounds (Control), only an optimal panel of hematopoietic growth factors, or with one of the test compounds M, P, T, 2-methyl-1-benzofuran-4-carboxylic acid, V, W, X, Y, AK, AC, or AI. […] Colony numbers were increased above the control cultures (% BFU-E/Control) by anywhere from 25% to 230%. Each of the listed test compounds was tested in at least 5 different patients' blood and the differences were statistically significant.

[11] = tested on: BFU-E; experiment: BFU-E cultured from cord blood; type: cell-based, human
Method: as §2
In a related study, BFU-E cultured from cord blood, was tested with or without compound M, P, R, T, W, Y, Z, AI, F, or 3-(5-chlorothien-3-yl)acrylic acid.

[12] = tested on: myeloid colonies; experiment: Experiment 3: myeloid colonies in cord blood cultured without added growth factors; type: cell-based, human; details: no added growth factors
Method: as §2
Control colonies were established in cultures with no added growth factors to support myelopoiesis, in Iscove's Modified Dulbecco's Media (IMDM) methylcellulose media with charcoal-absorbed fetal bovine serum, beta mercaptoethanol, BSA.

[13] = tested on: mice transgenic for the micro-LCR-201 gamma-globin gene promoter; experiment: γ-globin induction and hematocrit in transgenic mice; type: in vivo, mouse; details: IP once/day, 5 days/week, 2 weeks
Method: Transgenic mice containing the human fetal globin gene and a micro-Locus Control Region (LCR) received no treatment (controls) or were treated with test compounds and γ-globin mRNA was analyzed by RT-PCR. Compound W was administered to mice transgenic for the micro-LCR-201 gamma-globin gene promoter, by IP injection once/day for 5 days/week for 2 weeks, and gamma-globin mRNA was assayed by qPCR. Hematocrit was analyzed once per week. A significant difference in expression of human fetal globin mRNA and in hematocrit between Control and compound W-treated mice was found in initial experiments as summarized in Table 4 below.

arginine butyrate
erythroid colony numbers [1]: reduced colony numbers
effect on numbers of erythroid colonies compared to control [2]: decreased numbers of erythroid colonies
% Change from Control (erythroid colony growth) ([2]; micromolar: L-arginine 150, AB 100, PA 100, M 1, P 100, 2-methyl-1-benzofuran-4-carboxylic acid 10, V 10, W 40, Y racemic mix 50, Al 30, Hydroxyurea 20): −29%
Number with effects/No effect ([2]; patients' cultures, same concentrations as % Change): 5/6
levels required in vitro [3]: 100 µM

O=C(O)c1cccc(Cn2cc([N+](=O)[O-])cn2)c1 [Compound W]
% γ globin promoter induction (above untreated control) [4]: ** (‘**’ indicates a 100%-200% increase)
Concentration required ([5]; increase in fetal globin mRNA, erythroid colonies from cord blood): 40 µM
No. of Positive responses ([5]; positive cultures/cultures tested): 5/6
relative in vitro γ-globin gene reporter stimulation (rank order) [6]: P>M>W=R=Y
relative in vitro γ-globin gene induction (rank order) [7]: P>R=M>Y>W
relative in vitro F-cell production (rank order) [8]: W>Y>R>M>P
relative potency for F-cell production (rank order) [8]: R>M>Y>P>W
proportion of F-cells above the percentage in untreated controls [9]: significant increases
number of erythroid colonies compared to matched control cultures [10]: increased the number of colonies
numbers of BFU-E colonies compared to controls [11]: increased numbers of colonies
production of myeloid colonies compared to untreated control [12]: stimulated production of myeloid colonies
Hematocrit ([13]; untreated 51 +/− 0.45): 57 +/− 3
γ-globin mRNA/S16 (mean relative units) ([13]; untreated 1508): 3418 mean relative units
